Entries after “also recorded” stand apart in the source; their conditions may differ.
How the values were obtained:
immature/T1 B cells = test: AID mRNA expression in cultured immature/T1 B cells (quantitative RT-PCR); format: cell-based, mice
Description: Twenty-four hours after culture, B cells were harvested in TRIzol-LS reagent for AID mRNA quantification.
Expression of AID mRNA was determined by a quantitative RT-PCR^1. Briefly, sorted immature/T1 and mature follicular B cells were lysed in TRIzol LS before and after cultures. Total RNA was prepared from these cells using standard phenol/chloroform extraction method, and then cDNA was prepared using SuperScript III reverse transcriptase (Invitrogen) with oligo(dT)20 primers (Invitrogen). One-twentieth volume of cDNA samples were amplified in a primary PCR using Ramp-Taq DNA polymerase (Denville Scientific) with AID118 and AID119 primers^14. Primary PCR condition: initial incubation of 95° C. for 7 min followed by 15 cycles of amplification steps (95° C. for 30 s, 58° C. for 20 sec, and 72° C. for 45 sec.). Primary PCR products were then subjected to quantitative PCR using SYBR Green core reagents and AIDF2/AIDR2 primers^5.

3H9 mice [1] = tested on: 3H9 mice
Text: Specific B-lineage developmental compartments were identified as described^1: CD43^+ B (pre-pro-B and pro-B; B220^lowCD93^+IgM^−IgD^−CD43^+), large pre-B (B220^lowCD93^+IgM^− IgD^−CD43^−FSC^high), small pre-B (B220^lowCD93^+IgM^−IgD^−CD43^−FSC^low), immature/T1 B (B220^lowCD93^+IgM^+IgD^+/−CD21^−CD23^−) and mature B (B220^hiCD93^−) cells in bone marrow, and splenic MF B (B220^hiCD93^−IgM^intIgD^hiCD21^intCD23^hi) cells of naïve mice, and germinal center B (GL-7^+B220^highFas^+IgD^−) cells in spleen of NP-CGG/alum immunized mice. Specific developmental compartments were designated for B6, and then identical gatings were used for all samples. Cells that take up propidium iodide were excluded from our analyses. Labeled cells were analyzed/sorted in a FACS Canto (BD Bioscience) or FACS Vantage with DIVA option (BD Bioscience). Flow cytometric data were analyzed with FlowJo software (Treestar Inc.).

3H9 mice [2] = test: DNA avidity index of single immature/T1 B-cell N-cultures from treated 3H9 mice (ELISA); format: in vivo
Description: Single immature/T1 B cells and MF B cells from unimmunized B6 and Myd88^−/− mice, and control- and chloroquine-treated 3H9 mice were expanded in the presence of NB-21.2D9 feeder cells (N-cultures). Briefly, single immature/T1 B cells and MF B cells were directly sorted into each well of 96-well plates and cultured in the presence of exogenous recombinant IL-4 (2 ng/ml, Peprotech) and CD154-/BAFF-/IL-21-expressing NB-21.2D9 cells in RPMI 1640 (Invitrogen) supplemented with 10% HyClone FBS (Thermo scientific), 2-mercaptoethanol (5.5×10^−5 M), penicillin (100 units/ml), streptomycin (100 μg/ml), HEPES (10 mM), sodiumpyruvate (1 mM), and MEM nonessential amino acid (1×; all Invitrogen). Two thirds of culture media were replaced with fresh media daily from day 2 to day 8. On days 9-10, culture supernatants were harvested for ELISA determinations.
Concentrations of total IgG in culture supernatants were determined by standard ELISA. Briefly, 96-well ELISA plates (Corning) were coated with anti-mouse Igκ Ab and anti-mouse Igλ Ab (2 μg/ml each; Southern Biotech) in carbonate buffer for overnight. After washing, plates were blocked with PBS containing 0.5% BSA for 1 h. Diluted samples (at 1:100 and 1:1,000 dilutions in PBS containing 0.5% BSA and 0.1% Tween-20) and serially diluted standard anti-DNA mAb (HYB331-01; Abcam) were then applied to the plates and incubated for overnight. After washing, HRP-conjugated anti-mouse IgG (Southern Biotech) was added to the plates and incubated for 2 h. The HRP-activity was visualized with TMB substrate reagents (Biolegend) and OD450-OD620 was measured by spectrophotometer (Bio-Rad).
Anti-DNA IgG was measured by ELISA^19. […] Bound IgG was detected by HRP-conjugated anti-mouse IgG and TMB substrates as described above. […]
DNA avidity index, [anti-DNA IgG]/[total IgG], represents proportion of DNA-binding IgG to total IgG in reference to the anti-DNA mAb. To compare DNA avidity indices of individual immature/T1 B cells from control- and chloroquine-treated 3H9 mice, culture supernatant samples that contain total IgG (range: 1-3 μg/ml) were analyzed. […]

[3] = Humoral responses after chloroquine treatment (FIG. 17); format: in vivo
2F5 dKI mice [4] = test: Spleen B-cell numbers and GC responses in 2F5 dKI mice after chloroquine, MPER liposome immunization and anti-CD25 Ab (FIG. 20); format: in vivo
2F5 dKI mice [5] = conditions: 2F5 dKI mice treated with chloroquine for one week
[6] = tested on: human CD40 expressing HEK blue cells; test: HEK-Blue CD40L cells SEAP reporter assay of CD40L bioactivity; format: cell-based; conditions: liposome-conjugated vs non-conjugated
Text: HEK-Blue CD40L cells (Invivogen) were used to measure the bioactivity of CD40L through the secretion of embryonic alkaline phosphatase (SEAP) upon NF-κB activation following CD40 stimulation.

[7] = chloroquine-treated vs control 3H9 mice

With `CCN(CC)CCCC(C)Nc1ccnc2cc(Cl)ccc12` (stereo not shown) [chloroquine] the “AID expression in immature/T1 B cells elevated by CpG or CpG+anti-μ stimulation” value (immature/T1 B cells; in the presence of 2.0 μg/ml of chloroquine, 24 h culture) was “abrogated”, the “synergistic AID up-regulation” value (immature/T1 B cells; in vitro) was “blocked” and the “numbers of large- and small pre-B cells” value (3H9 mice [1]; 3H9 mice, multiple i.p. injections of chloroquine for up to 8 days, bone marrow) was “decreased”. For the same molecule, the “central B-cell tolerance” value (3H9 mice [1]; mice treated with chloroquine) was “relaxed”, the “frequency of immature/T1 B cells with higher DNA avidity” value (3H9 mice [2]; DNA avidity index 0.178 cut-off (average of control 3H9), chloroquine-treated 3H9 mice) was “increased” and the “average anti-DNA avidity indices of individual immature/T1 B cells” value (3H9 mice [2]; [7]) was “significantly higher; also recorded: more avidly”. For the same molecule, the “distribution of anti-DNA avidity indices” value (3H9 mice [2]; [7]) was “shifted toward higher avidity cohorts”, the “duration of suppression of humoral responses” value [3] was under 1 week and the “absolute cell numbers of splenic transitional-1 (T1) and T2” value (2F5 dKI mice [4]; consecutive injections with chloroquine and MPER liposome, 14 days after last chloroquine injection, 12 days after immunization) was “increased”. The “tolerizing deletion of 2F5 dKI B cells” value (2F5 dKI mice [4]; injections of chloroquine) was “release”, the GC responses (2F5 dKI mice [4]; vs controls (PBS+control IgG), after MPER liposome immunization) was “abolished” and the “splenic mature B-cell compartments” value (2F5 dKI mice [5]) was “increases”.

For `CCCCO` [n-butanol], the “AID expression in immature/T1 B cells stimulated with CpG” value (immature/T1 B cells; addition of n-butanol (0.1, 0.3, 1.0%)) was “did not significantly change”, the “synergistic effects of CpG and anti-μ co-stimulation on AID expression in immature/T1 B cells” value (immature/T1 B cells; n-butanol at 1.0%) was “completely abrogated” and the “synergistic effects of CpG and anti-μ co-stimulation on AID expression in immature/T1 B cells” value (immature/T1 B cells; n-butanol, dose-dependent) was “suppressed”.

B1: CD40L: CD40 ligand conjugated to liposomes (protein, UniProt P29965 113-261, looked up)
CD40 ligand, soluble form: MQKGDQNPQIAAHVISEASSKTTSVLQWAEKGYYTMSNNLVTLENGKQLTVKRQGLYYIYAQVTFCSNREASSQAPFIASLCLKSPGRFERILLRAANTHSSAKPCGQQSIHLGGVFELQPGASVFVNVTDPSQVSHGTGFTSFGLLKL
modifications: conjugated to liposomes
For B1, the “effect of liposome conjugation on CD40 activation” value [6] was “enhances”.
